Each cell line was assayed with CC(C)CCN1c2nc(Nc3cc(F)c(O)c(F)c3)ncc2N(C)C(=O)C1C [BI-D1870] + COc1cccc2cc(-c3nc([C@H]4CC[C@H](C(=O)O)CC4)n4ncnc(N)c34)[nH]c12 [OSI-027] (partner 0.5 µM) (assay: relative viability (nuclei count vs DMSO), 5 days (fraction); higher = more cells survive). Conditions: first compound 0.04 µM.
Summary of the method: (§1)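 Each reported value is a median over duplicate plates. It expresses relative viability: treated-well nuclei count divided by vehicle-well nuclei count. Lung cancer cell lines in 1536-well plates were dosed by pin tool a day after seeding, alone with one drug or with a fixed anchor-drug dose plus five library-drug doses (not always all listed) in √10 steps, and nuclei were counted after 5 days.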

Cell Line | relative viability
EMC-BAC-2 | 0.46
NCI-H2085 | 0.745
HCC-366 | 1.1
NCI-H1666 | 0.943
NCI-H596 | 0.797
LK-2 | 0.21
NCI-H2087 | 0.733
NCI-H1648 | 0.266
SK-MES-1 | 0.699
H3255 | 0.627
COR-L23 | 0.883
COR-L 105 | 0.769
LOU-NH91 | 0.797
ChaGo-K-1 | 0.652
NCI-H2170 | 0.732
NCI-H2405 | 0.675
HOP-62 | 0.993
HCC-44 | 0.751
NCI-H522 | 0.872
LU99A | 0.295
BEN | 0.296
HARA | 0.616
NCI-H1563 | 0.79

Same assay, conditions: first compound 0.1265 µM

Cell Line | relative viability
NCI-H2342 | 0.587
NCI-H1623 | 0.439
NCI-H727 | 0.518
NCI-H1650 | 0.591
NCI-H1993 | 0.511
SW 1573 | 0.436
NCI-H838 | 0.352
LCLC-103H | 0.417
NCI-H520 | 0.205
NCI-H2126 | 0.64
EMC-BAC-2 | 0.37
NCI-H2085 | 0.6
HCC-366 | 0.603
NCI-H1666 | 0.808
NCI-H596 | 0.704
LK-2 | 0.259
NCI-H2087 | 0.516

Cell Line | relative viability
NCI-H1648 | 0.255
SK-MES-1 | 0.559
H3255 | 0.51
COR-L23 | 0.722
COR-L 105 | 0.682
LOU-NH91 | 0.701
ChaGo-K-1 | 0.55
NCI-H2170 | 0.634
NCI-H2405 | 0.634
HOP-62 | 0.819
HCC-44 | 0.5
NCI-H522 | 0.66
LU99A | 0.265
BEN | 0.289
HARA | 0.417
NCI-H1563 | 0.814

Same assay, conditions: first compound 0.4 µM

Cell Line | relative viability
NCI-H2342 | 0.645
NCI-H1623 | 0.457
NCI-H727 | 0.646
NCI-H1650 | 0.593
NCI-H1993 | 0.53
SW 1573 | 0.513
NCI-H838 | 0.349
LCLC-103H | 0.447
NCI-H520 | 0.252
NCI-H2126 | 0.671
EMC-BAC-2 | 0.351
NCI-H2085 | 0.674
HCC-366 | 0.75
NCI-H1666 | 0.849
NCI-H596 | 0.95
LK-2 | 0.198
NCI-H2087 | 0.58

Cell Line | relative viability
NCI-H1648 | 0.273
SK-MES-1 | 0.567
H3255 | 0.548
COR-L23 | 0.707
COR-L 105 | 0.619
LOU-NH91 | 0.7
ChaGo-K-1 | 0.547
NCI-H2170 | 0.65
NCI-H2405 | 0.643
HOP-62 | 0.791
HCC-44 | 0.642
NCI-H522 | 0.655
LU99A | 0.288
BEN | 0.283
HARA | 0.503
NCI-H1563 | 0.673

Same assay, conditions: first compound 1.265 µM

Cell Line | relative viability
NCI-H2342 | 0.773
NCI-H1623 | 0.396
NCI-H727 | 1.01
NCI-H1650 | 0.68
NCI-H1993 | 0.537
SW 1573 | 0.477
NCI-H838 | 0.47
LCLC-103H | 0.418
NCI-H520 | 0.291
NCI-H2126 | 0.716
EMC-BAC-2 | 0.422
NCI-H2085 | 0.602
HCC-366 | 0.818
NCI-H1666 | 0.89
NCI-H596 | 0.572
LK-2 | 0.197
NCI-H2087 | 0.638

Cell Line | relative viability
NCI-H1648 | 0.252
SK-MES-1 | 0.55
H3255 | 0.682
COR-L23 | 0.823
COR-L 105 | 0.808
LOU-NH91 | 0.75
ChaGo-K-1 | 0.559
NCI-H2170 | 0.428
NCI-H2405 | 0.688
HOP-62 | 0.849
HCC-44 | 0.464
NCI-H522 | 0.654
LU99A | 0.308
BEN | 0.311
HARA | 0.608
NCI-H1563 | 0.801

Same assay, conditions: first compound 4 µM

Cell Line | relative viability
NCI-H2342 | 0.679
NCI-H1623 | 0.376
NCI-H727 | 0.517
NCI-H1650 | 0.331
NCI-H1993 | 0.54
SW 1573 | 0.329
NCI-H838 | 0.462
LCLC-103H | 0.366
NCI-H520 | 0.2
NCI-H2126 | 0.58
EMC-BAC-2 | 0.334
NCI-H2085 | 0.337
HCC-366 | 0.49
NCI-H1666 | 0.807
NCI-H596 | 0.5
LK-2 | 0.148
NCI-H2087 | 0.392

Cell Line | relative viability
NCI-H1648 | 0.277
SK-MES-1 | 0.336
H3255 | 0.539
COR-L23 | 0.577
COR-L 105 | 0.754
LOU-NH91 | 0.57
ChaGo-K-1 | 0.538
NCI-H2170 | 0.639
NCI-H2405 | 0.642
HOP-62 | 0.699
HCC-44 | 0.383
NCI-H522 | 0.649
LU99A | 0.287
BEN | 0.283
HARA | 0.421
NCI-H1563 | 0.709

The cell lines below were run with CC(C)CCN1c2nc(Nc3cc(F)c(O)c(F)c3)ncc2N(C)C(=O)C1C [BI-D1870] + N=C(N)NC(=N)NCCc1ccccc1 [Phenformin] (partner 250 µM) in the same assay as above. Conditions: first compound 0.04 µM.
Summary of the method: as §1

Cell Line | relative viability
NCI-H2342 | 0.546
NCI-H1623 | 0.574
NCI-H727 | 0.53
NCI-H1650 | 0.368
NCI-H1993 | 0.482

From the supplement of paper PMC10307832
